The nature of data set [1]: Cytotoxicity screening of the peptide library. The format is cell-based, human. The note with it: human; both repeats; read-out: IC50 cell toxicity MRC5-SV2. On the procedure:
(§1) To determine early signs of peptide toxicity, the library was tested against the MRC5-SV2 cell line of human, embryonic lung fibroblasts (Sigma-Aldrich). Peptides were serially diluted in 96-well plates as described earlier at concentrations ranging from 64 μM to 0.25 μM for the first screening, and from 32 μM to 0.016 μM for the independent repeat. Tamoxifen (Sigma-Aldrich) was included as a reference compound. After preparation of the test plates, cell suspension (190 μL) of 1.5 × 10^5 cells/mL in complete minimum essential medium (Gibco) was added to the peptides. Plates were incubated for 72 h at 37°C in a 5% CO2 incubator (Binder). Afterwards, 50 μL of a 0.01% (wt/vol) resazurin (Sigma-Aldrich) solution was added to the wells to detect cell viability.

Another data set relates to S. aureus ATCC 6538. The format is cell-based, Staphylococcus aureus. The note with it: 16 h; for MIC S. aureus ATCC 6538: determined visually; for IC50: MHB, 37°C, resazurin, 50% growth inhibition. The protocol:
(§2) To detect antimicrobial activity of the BSF AMPs, the peptide library underwent screening against a panel of microorganisms, consisting of S. aureus ATCC 6538, E. coli ATCC 8739, P. aeruginosa ATCC 9027, C. albicans B59630, and A. fumigatus B42928. Serial dilutions of the peptides were prepared from the DMSO stock solutions in sterile demineralized water in 96-well plates using an automated liquid-handling workstation (Beckman Coulter Biomek 3000) in end volumes of 10 μL. The final in-plate concentration of DMSO was <1%. Peptide concentrations ranged from 64 μM to 0.25 μM for the first evaluation, and from 32 μM to 0.016 μM for the independent repeat. As references, doxycycline (Sigma-Aldrich; S. aureus, E. coli, P. aeruginosa), flucytosine (Sigma-Aldrich; C. albicans), and econazole (Sigma-Aldrich; A. fumigatus) were used. Suspensions of a starting inoculum of 5 × 10^3 CFU/mL (E. coli, S. aureus, C. albicans, A. fumigatus) and 5 × 10^4 CFU/mL (P. aeruginosa) were prepared in MHB (bacterial species) or RPMI medium (fungal species) and 190 μL was added to the 96-well plates. Plates were incubated for 16 h (E. coli, S. aureus, P. aeruginosa), 24 h (C. albicans), or 48 h (A. fumigatus) at 37°C. After incubation, read-out of the antimicrobial activity was performed using a resazurin assay. Then, 20 μL of a 0.01% (wt/vol) resazurin (Sigma-Aldrich) solution was added to each well and plates were incubated for 15 min (S. aureus), 30 min (E. coli), 45 min (P. aeruginosa), 4 h (C. albicans), or 17 h (A. fumigatus) to allow resazurin reduction to take place. Fluorescence was read using a microplate reader (Telix) at λexcitation = 550 nm and λemission = 590. […] MIC values were determined visually. Medium in the wells with no visual growth was plated on MHA to detect the MBC, defined as ≥3 log reduction compared with the growth control.

Data set [2] has as its system E. coli ATCC 8739. It is filed as cell-based, Escherichia coli. Conditions: for IC50: MHB, 37°C, resazurin. On the procedure:
as §2
(In general: Alamar Blue is a resazurin reagent that responds to reducing activity.)

Another data set has as its system P. aeruginosa ATCC 9027. It is filed as cell-based, Pseudomonas aeruginosa. Conditions: 16 h; for MIC P. aeruginosa ATCC 9027: determined visually; for IC50: MHB, 37°C, resazurin. The protocol:
as §2

Data set [3] concerns preformed P. aeruginosa ATCC 15442 biofilm. The experiment in a line: Biofilm eradication (postexposure). It is filed as cell-based, Pseudomonas aeruginosa. The note with it: at 64 μM and 128 μM; resazurin. The protocol: After 16 h of incubation at 37°C and shaking at 110 rpm (New Brunswick Innova 4300), a resazurin assay was used as described by Gilbert-Girard et al. to determine the viability of the bacterial cells in the biofilm ([79]). After incubation, the growth medium was removed from the well plates and the bacterial biofilms were washed once with PBS to remove remaining planktonic cells. […] The fluorescence of the wells was measured at λexcitation = 550 nm and λemission = 590 using a microplate reader (Promega). Afterwards, a crystal violet staining was applied to determine the biomass of the biofilms ([79]). The resazurin solution was removed from the well plates and 200 μL of 100% ethanol (VWR Chemicals) was added to fix the biofilms. After 15 min of incubation, the ethanol was discarded from the wells and the plates were left to air dry for 30 min. […] The staining solution was removed after 5 min and the biofilms were washed with PBS. After air-drying for 10 min, the crystal violet stain was solubilized in 200 μL of 100% ethanol. […] The experiment was carried out three times. Polymyxin B sulfate (Sigma-Aldrich) was included as a reference. […] The next day, bacterial viability and biomass were determined with a resazurin assay and crystal violet assay as described earlier. […]

Data set [4] deals with MRC5-SV2 cell line of human, embryonic lung fibroblasts. Nature of the data set: Cytotoxicity screening of the peptide library. It is filed as cell-based. The note with it: 72 h, 37°C, resazurin fluorescence. On the procedure:
as §1

Another data set has as its system C. albicans B59630. The format is cell-based, Candida albicans. Conditions: RPMI, 24 h, 37°C, resazurin. The protocol: as §2
The next data set has as its system A. fumigatus B42928. It is filed as cell-based, Aspergillus fumigatus. Conditions: RPMI, 48 h, 37°C, resazurin. On the procedure:
as §2

The subject of data set [5] is E. coli ATCC 8739. Conditions: ATCC 8739, 16 h.
The test system of another data set is P. aeruginosa ATCC 15442. The note with it: ATCC 15442, 16 h.
A further data set relates to K. pneumoniae ATCC 13883. Conditions: ATCC 13883, 16 h.
In the next data set the test system is B. cenocepacia LMG 16656. Conditions: for IC50: read-out: IC50 B. cenocepacia LMG 16656, starting at 32 μM, 10^5 CFU/mL, 48 h, 37°C, resazurin; for MIC B. cenocepacia LMG 16656: visual.
Data set [6] relates to M. tuberculosis ATCC 25177 (H37Ra). Conditions: for IC50: read-out: IC50 M. tuberculosis ATCC 25177 (H37Ra), starting at 32 μM, 5×10^5 CFU/mL, 7 days, 37°C, resazurin; for MIC M. tuberculosis ATCC 25177 (H37Ra): visual.
Where [7] appears, read: repeat 1, 64-0.25 μM, determined visually, 16 h.
Setting [8] is: repeat 2, 32-0.016 μM, determined visually, 16 h.

Read-outs that look alike come from different tables or passages of the source. Ends that are not written are not given here. Peptide text beside a SMILES is read from it.

By IC50 is commonly meant the concentration that inhibits the measured activity by half. With “FNNLPICVEGLAGDIGSILLGVESDIGALAGAIANLALIAGECAAQGEAGAAICA-NH2 (cysteines drawn unpaired) [Hill-Stom1]”, the concentration for half-maximal inhibition (IC50) in data set [1] is less than 32 µM. The “MIC S. aureus ATCC 6538” value is greater than 64.00 µM in the data set with S. aureus ATCC 6538 (repeat 1, 64-0.25 μM) and greater than 32.00 µM against S. aureus ATCC 6538 (repeat 2, 32-0.016 μM). Moreover, the “MIC E. coli ATCC 8739” value against E. coli ATCC 8739 [2] (setting [7]) is greater than 32.00 µM; in the data set on E. coli ATCC 8739 [2] (setting [8]), greater than 64.00 µM. Besides, the “MIC P. aeruginosa ATCC 9027” value in the data set on P. aeruginosa ATCC 9027 (repeat 1, 64-0.25 μM) is greater than 32.00 µM; in the data set with P. aeruginosa ATCC 9027 (repeat 2, 32-0.016 μM), greater than 64.00 µM.

On to `CC[C@H](C)[C@H](N)C(=O)N[C@@H](CCCCN)C(=O)N[C@@H](CS)C(=O)N[C@H](C(=O)N1CCC[C@H]1C(=O)N[C@@H](CO)C(=O)N[C@@H](CCC(N)=O)C(=O)N[C@@H](CS)C(=O)N[C@@H](CC(N)=O)C(=O)N[C@@H](CCC(N)=O)C(=O)N[C@H](C(=O)N[C@@H](CS)C(=O)N[C@@H](CCCNC(=N)N)C(=O)N[C@H](C(=O)N[C@@H](CC(C)C)C(=O)NCC(=O)N[C@@H](CCCCN)C(=O)N[C@@H](CCCCN)C(=O)N[C@@H](CS)C(=O)NCC(=O)N[C@@H](Cc1ccc(O)cc1)C(=O)N[C@@H](CS)C(=O)N[C@@H](CCCCN)C(=O)N[C@@H](CC(N)=O)C(=O)N[C@@H](C)C(=O)N[C@@H](CO)C(=O)N[C@H](C(=O)N[C@@H](CS)C(=O)N[C@H](C(=O)N[C@@H](CS)C(=O)N[C@@H](CC(C)C)C(N)=O)C(C)C)[C@@H](C)O)C(C)C)[C@@H](C)CC)C(C)C` [Hill-Knot2] (H-IKCVPSQCNQICRVLGKKCGYCKNASTCVCL-NH2; N-terminus assumed), for which, in data set [1], the IC50 was less than 32 µM.

Take polymyxin B [reference compound]: in data set [3], the “reduction in viability of preformed biofilm” value is on record as “over 70%”.

Take “VTCDLLEPFLGPAPCMIHCIVRFRKRTGYCNSQNVCVCR [Hill-Def1, Defensin without disulfide bridges, C-terminal amidation]”: the IC50 in data set [4] (repeat 1, first screening 64-0.25 μM) was greater than 64 µM; in data set [4] (repeat 2, independent repeat 32-0.016 μM), greater than 32 µM; in the data set with S. aureus ATCC 6538 (repeat 1, 64-0.25 μM), greater than 64 µM; with S. aureus ATCC 6538 (repeat 2, 32-0.016 μM) it was greater than 32 µM; in the data set on E. coli ATCC 8739 [2] (repeat 1, 64-0.25 μM, 16 h) it was greater than 64 µM; in the data set on E. coli ATCC 8739 [2] (repeat 2, 32-0.016 μM, 16 h), greater than 32 µM. Besides, the IC50 with P. aeruginosa ATCC 9027 (repeat 1, 64-0.25 μM) was greater than 64 µM; in the data set with P. aeruginosa ATCC 9027 (repeat 2, 32-0.016 μM), greater than 32 µM; in the data set on C. albicans B59630 (repeat 1, 64-0.25 μM), greater than 64 µM; with C. albicans B59630 (repeat 2, 32-0.016 μM), greater than 32 µM; in the data set on A. fumigatus B42928 (repeat 1, 64-0.25 μM) it was greater than 64 µM; in the data set on A. fumigatus B42928 (repeat 2, 32-0.016 μM), greater than 32 µM. For the same compound, the “MIC S. aureus ATCC 6538” value was greater than 64.00 µM in the data set with S. aureus ATCC 6538 (repeat 1, 64-0.25 μM) and greater than 32.00 µM against S. aureus ATCC 6538 (repeat 2, 32-0.016 μM). Besides, the “MIC E. coli ATCC 8739” value is greater than 64.00 µM in the data set with E. coli ATCC 8739 [2] (setting [7]) and greater than 32.00 µM in the data set on E. coli ATCC 8739 [2] (setting [8]). The “MIC P. aeruginosa ATCC 9027” value in the data set with P. aeruginosa ATCC 9027 (repeat 1, 64-0.25 μM) is greater than 64.00 µM; against P. aeruginosa ATCC 9027 (repeat 2, 32-0.016 μM) it was greater than 32.00 µM.

Regarding “SWWKKVFKPVEKLGQRVRDATIQGIGIAQQGANVLATVRGGPPQ-NH2 [Hill-Cec1]”, the “MIC E. coli ATCC 8739” value with E. coli ATCC 8739 [2] (ATCC 8739, 16 h) came to 0.25 µM. Moreover, the IC50 is 0.15 µM in the data set on E. coli ATCC 8739 [5]; greater than 32 µM in the data set with B. cenocepacia LMG 16656 (repeat 1); greater than 32 µM in the data set with B. cenocepacia LMG 16656 (repeat 2); greater than 32 µM in data set [6] (repeat 1); greater than 32 µM in [6] (repeat 2). In addition, the “MIC P. aeruginosa ATCC 15442” value in the data set on P. aeruginosa ATCC 15442 amounted to 1 µM. For the same compound, the “MIC K. pneumoniae” value with K. pneumoniae ATCC 13883 fell in the range of 0.25 to 0.5 µM. Also, the “MIC B. cenocepacia LMG 16656” value with B. cenocepacia LMG 16656 (repeat 1) and against B. cenocepacia LMG 16656 (repeat 2) was greater than 32 µM throughout. For the same compound, the “MIC M. tuberculosis ATCC 25177 (H37Ra)” value in data set [6] (repeat 1) and in data set [6] (repeat 2) was greater than 32 µM in each case.

The record behind these values is article PMC8729770, “In Vitro Evaluation of Antimicrobial Peptides from the Black Soldier Fly (Hermetia Illucens) against a Selection of Human Pathogens” (Microbiology Spectrum, 2022).
